For 77 molecules, melting point results are on record in a melting point compilation (Tetko et al.).

By melting point is commonly meant the temperature, or range, at which the solid turns liquid. In turn, `CS(=O)(=O)Nc1ccc2nn(C3CCCC3)nc2c1` showed a melting point of 126 °C. To `COc1cc(C(c2ccc(C)o2)c2ccc(C)o2)c(O)cc1[N+](=O)[O-]` belongs 104 °C; to `O=C(N[C@@H](Cc1ccccc1)C(=O)Oc1c(F)c(F)c(F)c(F)c1F)OCC1c2ccccc2-c2ccccc21`, 151 to 152 °C; to `CCOCOc1ccc(C(=O)Nc2cccc(Cl)c2Cl)cc1`, 92.5 °C. For the molecule `N#Cc1c(N)cc(N)nc1Br`, the melting point stood at 257 °C.

As for `Fc1cccc(Cl)c1C(Cl)(Cl)Cl`, the melting point lay in the range of 38 to 43 °C. To `O=C(NCCCC[C@H](NC(=O)OCc1ccccc1)C(=O)O)OCC1c2ccccc2-c2ccccc21` belongs 101 to 105 °C; to `CSc1scc2c1C(=NO)CC(C)(C)C2`, 151 to 154 °C; to `CC[C@@]1(O)CC[C@]2(C)[C@H]3CC[C@]4(C)C(O)CC[C@H]4[C@@H]3CC[C@@]2(C)C1` (some centres not stated), 168 to 169 °C. On to `CC1CC2C3CCC4=CC(=O)C=CC4(C)C3(F)C(O)CC2(C)C1C(=O)CO` (configuration not stated), for which the melting point is 217 °C. As to `CCOC(=O)CCC(=O)c1ccc(OC)cc1`, the melting point was 51 °C. To `C[Si](C)(C)C#Cc1ccccn1` belongs 42 to 45 °C; to `O=C(CCCl)N1CCc2ccccc21`, 83 to 85 °C. Molecule `CC(C)(O)c1ccc(-c2ccccc2)cc1` had a melting point of 91.5 °C. To `O=C(O)C1C2CCC(O2)C1C(=O)O` (configuration not stated) belongs 144 °C. `COc1cccc2c(O)c3ccccc3nc12`: the melting point lay in the range of 284 to 287 °C. To `COC(=O)C1CC(c2ccccc2)c2ccccc21` (configuration not stated) belongs 91 °C; to `CCCCCCCCSC(=O)Oc1cc(Cl)nnc1-c1ccccc1`, 27 °C; to `CC1(/C(=N\Nc2ccc([N+](=O)[O-])cc2[N+](=O)[O-])C(=O)O)CCC(C(=O)O)C1(C)C` (configuration not stated), 191 °C. To `O=C1Nc2ccc(I)cc2C1=O` belongs 285 °C; to `Cc1nc2ccc(Br)cn2c(=O)c1C(=O)c1ccccc1`, 245 to 247 °C.

`CCCCCCC(O)CO` (configuration not stated) yielded a melting point of 36 to 38 °C. The molecule `CN1CCCN(C)CCN(C)CCCN(C)CC1` had a melting point of 41 to 43 °C.

In the case of `CCC1CN2CCc3cc(OC)c(OC)cc3C2CC1CC1NCCc2cc(O)c(OC)cc21` (configuration not stated), the melting point is 116 °C. To `CC1=C(C(=O)OC(C)C)C(c2ccccc2)NC(=S)N1` (configuration not stated) belongs 177 °C. To `OC(O)C(Br)(Br)Br` belongs 53.5 °C; to `CC(C)Nc1ccc(Cl)cc1[N+](=O)[O-]`, 72 to 74 °C. The molecule `COC(=O)c1ccc(N=C=S)cc1` displayed a melting point of 48 °C. The molecule `O=[N+]([O-])c1cccc(-n2cccc2)c1` yielded a melting point of 72 to 74 °C.

`NC(=O)C(Cl)(Cl)Cl`: the melting point is 142 °C. Molecule `CC(C)[C@@H]1CC[C@H](C)C[C@@H]1OC(=O)c1cccc(C(=O)O)n1` showed a melting point of 120 °C.

In turn, `Cc1nc(/C(C#N)=C/c2ccco2)sc1/N=N/c1c(Cl)cc(Cl)cc1Cl` registered a melting point of 156 °C. To `BrCc1ccc(OC2CCOCC2)cc1` belongs 56 to 58 °C; to `NS(=O)(=O)c1cc(F)c(Br)cc1F`, 165 °C; to `Cc1cc(Br)cc(C)c1N=C=O`, 61 °C. To `O=Cc1ccccc1-n1cccn1` belongs 58 °C; to `OC1COC2C(O)COC12` (configuration not stated), 88 °C.

Regarding `c1ccc2c(Oc3cccc4ccccc34)cccc2c1`, the melting point was found to be 110 °C. Consider `Cc1nc(-c2ccccc2)ncc1C=O`, for which the melting point fell in the range of 101 to 103 °C. `Cc1nc(C=O)c[nH]1`: the melting point was determined as 165 °C. To `CCCCCCCCCCCCCCCCOc1ccc(C(=O)O)cc1` belongs 132 °C.

`O/N=C(\Cc1ccccc1)c1ccc2c3c(cccc13)CC2` came in with a melting point of 138 °C.

In the case of `ON(c1ccccc1)C(Br)C(Br)c1ccccc1` (configuration not stated), the melting point is 125 °C.

In turn, `CCN(CC)CCNC(=O)c1cc(Cl)c(N)cc1OC` displayed a melting point of 146 °C. To `CCCCc1c(C)nc(NC(=O)NS(=O)(=O)c2cccs2)nc1O` belongs 200 to 201 °C; to `O=c1c(Cl)c(Cl)cnn1Cc1c(Cl)cccc1Cl`, 158 to 160 °C. To `O=C1Nc2ccccc2C12OCCO2` belongs 125 to 128 °C; to `CC1(C)C(C=Cc2cc(Br)cc([N+](=O)[O-])c2[O-])=[N+](Cc2ccccc2)c2ccccc21`, 208 °C.

`Nc1ccccc1-n1cccn1` registered a melting point of 44 to 46 °C. In the case of `O=[N+]([O-])c1cccc2scc(Br)c12`, the melting point was in the range of 120 to 122 °C. To `Cc1ccc(S(=O)(=O)n2cc(C=CC(=O)O)c3ccccc32)cc1` belongs 238 to 241 °C; to `O=C(O)c1ccc(F)c(F)c1`, 122 to 125 °C; to `Nc1ccccc1N1CCCCC1`, 46 °C. To `Cn1cc(Br)c(C(=O)Cl)n1` belongs 131 to 133 °C; to `Cc1cc(C)c(I)c(C)c1`, 29 °C. To `CC(O)CC(=O)O` (configuration not stated) belongs 49 °C; to `Nc1cccc2cc[nH]c12`, 91 °C. `CCOC(=O)c1cc(C)n(-c2cc(C)[nH]n2)n1`: the melting point was 120 to 122 °C.

As to `CCCCCCCCc1ccc(/N=N/c2ccc(OC(=O)CC)cc2)cc1`, the melting point lay within 60 to 62 °C. On to `CCCCOC(=O)C(C)Oc1ccc(Oc2ccc(C(F)(F)F)cn2)cc1` (configuration not stated), for which the melting point amounted to 13 °C. To `Cc1noc(C)c1C(=O)O` belongs 141 to 142 °C; to `ClC(Cl)C(Cl)C(Cl)Cl`, -10 °C; to `Cc1oc(-c2ccc(Cl)cc2)cc1C(=O)O`, 231 to 232 °C.

For `CCCCCCCCCCCCCCCCCCC(=O)NC`, the melting point fell in the range of 91 to 94 °C.

`FC(Cl)C(F)(F)C(F)(F)Cl` (configuration not stated) had a melting point of -97 °C. To `COC(=O)COC(=O)c1ccc2c(O)c(C(=O)OC)oc2c1` belongs 130 °C; to `OCC1CC1`, -60 °C. To `O=C(c1ccc(Cl)cc1)c1nn(-c2ccccc2)/c(=N\N=Cc2ccc(F)cc2)s1` belongs 150 °C. As for `CC(C)=C1C2CCC1c1ccccc12`, the melting point worked out at 90 °C. `CCOC(=O)C1=C(C)NC(=O)NC1c1ccco1` (configuration not stated) displayed a melting point of 206 °C. To `C/C=C/C=C/C(=O)OC` belongs 15 °C. As for `CCc1ccc2cc(O)c(O)cc2c1`, the melting point was determined as 149 °C. To `COC(=O)[C@H](CSSC[C@@H](C(=O)OC)N1C(=O)[C@@H]2[C@H](C1=O)[C@@H]1C=C[C@H]2C1)N1C(=O)[C@@H]2[C@H](C1=O)[C@@H]1C=C[C@H]2C1` belongs 100 °C; to `c1ccc(-c2cnco2)cc1`, 37 to 39 °C.

As to `Nc1nc2ccccc2[nH]1`, the melting point stood at 230 °C. To `O=[N+]([O-])c1cc(O)c(Cl)cc1Cl` belongs 100 °C; to `CON=C(C(=O)OC)c1ccccc1COc1ccccc1C`, 102 °C.
